We go through three compounds from US10668055B2, “Cancer treatment using combinations of ERK and RAF inhibitors” (BIOMED VALLEY DISCOVERIES, INC., priority 2013, dated 2020).

Like-named read-outs stand apart in the source and are kept apart here.

For series [1], the system named is A375 cells. Nature of the series: Dose escalation study in A375 cells. Format: cell-based, human. To be noted: after 2 months, cells exposed to agent alone. The method, then:
Single agent dose escalations were performed based on Little et al., 2011 and is outlined in FIG. 25. Cells were then allowed to grow until 70-90% confluence and split. […] Medium was refreshed every 3-4 days. When cells again reached about 40-60% confluence, the dose was escalated. In the event that the 40-60% window was missed, the cells were split again and dosed once they reached 40-60% confluence. Again, medium was refreshed every 3-4 days. The process was repeated as required (FIG. 25).

Series [2] deals with MAPK signaling pathway in A375 and HCT116 cells. Briefly: Western blot analysis of MAPK signaling, cell cycle and apoptosis proteins. The class given is cell-based, human. The method, then: Cells were allowed to adhere overnight prior to addition of the indicated amount of test compound (BVD-523) or vehicle control. Cells were treated for either 4 or 24 hours before isolation of whole-cell protein lysates, as specified below. Cells were harvested by trypsinisation, pelleted and snap frozen. Lysates were prepared with RIPA (Radio-Immunoprecipitation Assay) buffer, clarified by centrifugation and quantitated by bicinchoninic acid assay (BCA) assay. 20-50 μg of protein was resolved by SDS-PAGE electrophoresis, blotted onto PVDF membrane and probed using the antibodies detailed in Table 13 (for the 4-hour treatment) and Table 14 (for the 24-hour treatment) below.
(In general: Immunoblotting shows a protein as a band on a membrane.)

Series [3] deals with A375 human melanoma xenograft. Briefly: A375 in vivo study: tumor growth delay and regression responses. To be noted: for MTV (n) D45: Day 45. On the set-up: species or system athymic nude mice. The method, then: Female athymic nude mice (Crl:NU(Ncr)-Foxn/^nu, Charles River) were nine weeks old with a body weight (BW) range of 17.5 to 26.2 grams on Day 1 of the study. The animals were fed ad libitum water (reverse osmosis, 1 ppm CI), and NIH 31 Modified and Irradiated Lab Diet® consisting of 18.0% crude protein, 5.0% crude fat, and 5.0% crude fiber. The mice were housed on irradiated Enrich-o'cobs™ Laboratory Animal Bedding in static microisolators on a 12-hour light cycle at 20-22° C. (68-72° F.) and 40-60% humidity. The recommendations of the Guide for Care and Use of Laboratory Animals with respect to restraint, husbandry, surgical procedures, feed and fluid regulation, and veterinary care were complied with.
Tumor xenografts were initiated with A375 human melanomas by serial subcutaneous transplantation in athymic nude mice. On the day of tumor implant, each test mouse received a 1 mm^3 A375 fragment implanted subcutaneously in the right flank, and tumor growth was monitored as the average size approached the target range of 80 to 120 mm^3. Tumors were measured in two dimensions using calipers, and volume was calculated using the formula: […]
Ten days after tumor implantation, designated as Day 1 of the study, the animals were sorted into nine groups (Groups 1-9) each consisting of fifteen mice and one group (Group 10) consisting of ten mice. Individual tumor volumes ranged from 75 to 144 mm^3 and group mean tumor volumes were 110 or 111 mm^3.
On Day 1 of the study, mice were sorted into nine groups (Group 1-9) each consisting of fifteen mice and one group (Group 10) consisting of ten mice, and dosing was initiated according to the treatment plan summarized in Table 15 below. Each dose was given by oral gavage (p.o.) in a dosing volume of 10 mL/kg (0.2 mL per 20 grams of body weight), scaled to the body weight of each individual animal. The vehicle and dabrafenib doses were to be given once daily until study end (qd to end), whereas the BVD-523 doses were to be given twice daily until study end (bid to end). For bid dosing, dosing was initiated in the afternoon on Day 1, so that one dose was given on the first day (“first day 1 dose”).
Due to the striking response to combination treatment, dosing in Groups 2-5 was stopped on Day 20 in order to monitor tumor re-growth. Dosing was to be re-initiated in a group when the mean tumor burden reached 1000 mm^3. By Day 42, the 1000 mm^3 mean tumor burden had not been reached in any of the combination groups. Dosing was re-initiated to permit post-final dose serum and tumor sampling for pharmacokinetic analyses. […] The final dosing schedules are shown below in Table 16.
Tumors were measured using calipers twice per week, and each animal was euthanized when its tumor reached the pre-determined tumor volume endpoint of 2000 mm^3 or on the final day, whichever came first. Animals that exited the study for tumor volume endpoint were documented as euthanized for tumor progression (TP), with the date of euthanasia. The time to endpoint (TTE) for analysis was calculated for each mouse by the following equation:
[formula] where TTE is expressed in days, endpoint volume is expressed in mm^3, b is the intercept, and m is the slope of the line obtained by linear regression of a log-transformed tumor growth data set. The data set consists of the first observation that exceeded the endpoint volume used in analysis and the three consecutive observations that immediately preceded the attainment of this endpoint volume. The calculated TTE is usually less than the TP date, the day on which the animal was euthanized for tumor size. […] Any animal classified as having died from NTR (non-treatment-related) causes due to accident (NTRa) or due to unknown etiology (NTRu) were excluded from TTE calculations (and all further analyses). Animals classified as TR (treatment-related) deaths or NTRm (non-treatment-related death due to metastasis) were assigned a TTE value equal to the day of death. […]

A short description of series [4]: A375 in vivo study: toxicity (body weight, deaths, side effects). An excerpt:
Animals were weighed daily on Days 1-5, then twice per week until completion of the study. […] Individual body weight loss was monitored as per protocol, and any animal that exceeded the limits for acceptable body weight loss was euthanized. Group mean body weight loss also was monitored as per protocol. Dosing was to be suspended in any group that exceeded the limits for acceptable mean body weight loss. If mean body weight recovered, then dosing was to be resumed in that group, but at a lower dosage or less frequent dosing schedule.
Acceptable toxicity for the maximum tolerated dose (MTD) was defined as a group mean body-weight loss of less than 20% during the study and not more than 10% treatment-related (TR) deaths. […] A death was classified as non-treatment-related (NTR) if there was no evidence that death was related to treatment side effects. NTR deaths were further characterized based on cause of death. A death was classified as NTRa if it resulted from an accident or human error. […] A death was classified as NTRu if the cause of death was unknown and there was no available evidence of death related to treatment side effects, metastasis, accident or human error, although death due to treatment side effects cannot be excluded.

The subject of series [5] is melanoma xenograft model derived from biopsies obtained from a patient. Briefly: Melanoma xenograft model derived from patient biopsies after progression on vemurafenib. Format: in vivo. To be noted: model with acquired cross-resistance.
Another series has as its system A375. Nature of the series: Single agent proliferation assay (CellTiter-Glo, 72 h). Format: cell-based, human. To be noted: Homo sapiens, A-375; A375, 72 h. The method, then: (§1) Cells were seeded in 96-well plates at the densities and media conditions indicated in Table 17 and allowed to adhere overnight prior to addition of compound or vehicle control. Compounds were prepared from DMSO stocks to give the desired final concentrations. The final DMSO concentration was constant at 0.1%. Test compounds were incubated with the cells for 72 h at 37° C., 5% CO2 in a humidified atmosphere. CellTiter-Glo® reagent (Promega, Madison, Wis.) was added according to manufacturer's instructions and luminescence detected using the BMG FLUOstar plate reader (BMG Labtech, Ortenberg, Germany). The average media only background value was deducted and the data analysed using a 4-parameter logistic equation in GraphPad Prism (GraphPad Software, La Jolla, Calif.).

Another series concerns G-361. Described as above. The class given is cell-based. To be noted: Homo sapiens, G-361, 72 h. The method, then:
as §1

The subject of series [6] is A375 cells.
Description: (§2) Cancer cell lines were maintained in cell culture under standard media and serum conditions. For dose escalation studies, A375 cells were split, grown to about 40-60% confluence, and then treated with the initial dose of the specified drug.
(§3) Proliferation assays were used to track changes in sensitivity to the escalated agent(s) at appropriate time intervals (e.g. each month, although the timing is dependent on adequate cell numbers being available). For proliferation assays, cells were seeded in 96-well plates at 3000 cells per well in drug-free DMEM medium containing 10% FBS and allowed to adhere overnight prior to addition of compound or vehicle control. […] Test compounds were incubated with the cells for 96 hours at 37° C. and 5% CO2 in a humidified atmosphere. Alamar Blue 10% (v/v) was then added and incubated for 4 hours and fluorescent product was detected using a BMG FLUOstar plate reader. The average media only background value was deducted and the data analyzed using a 4-parameter logistic equation in GraphPad Prism. Paclitaxel was used as a positive control.
Series [7] has as its system A375 cells. Briefly: Proliferation assay (Alamar Blue, 96 hours) on parental and dose-escalated A375 cell lines. To be noted: Homo sapiens.
Description: as §2, §3
Series [8] concerns MAPK signaling pathway in A375 and HCT116 cells. The settings on record: Morris et al., 2013; cited from earlier work.

As a reminder, the IC50 is the concentration at which inhibition is half-maximal. Regarding `CC(C)Nc1cc(-c2c[nH]c(C(=O)N[C@H](CO)c3cccc(Cl)c3)c2)c(Cl)cn1` [BVD-523], the “Increase in drug exposure beyond the IC50 that cells withstand” value in the series with A375 cells [1] is “less than 10 fold”. In addition, in [2] (A375 cell background), the “PARP protein cleavage and increased apoptosis” value was “not noted”. The “Autophosphorylation of ERK” value in series [2] (FIG. 18) is reported as “allows for the autophosphorylation of ERK while still inhibiting ERK”. Moreover, in series [2] (prolonged treatment), the “DUSP6 total protein levels” value was “greatly reduced”, the cyclin-D1 protein levels result is listed as “greatly reduced” and the “total levels of Bim-EL” value is on record as “increase”. Also, in series [3] (G8: 50 mg/kg po bid to end), the “% TGD” value was −7%, the “Median TTE” value came out at 8.6 days, the “PR (partial regressions)” value was found to be 0 and the “MTV (n) D45” value was 0 (1) imd. Also, in [3] (G9: 100 mg/kg po bid to end), the “% TGD” value is given as 101%, the “Median TTE” value is listed as 18.5 days, the “PR (partial regressions)” value is listed as 0 and the T-C is on record as 9.3 days. For the same compound, in series [3] (G9: 100 mg/kg po bid to end), the “MTV (n) D45” value was 2 (2) imd. Besides, in series [4] (G8: 50 mg/kg po bid to end), the “Deaths NTR” value was 0 and the “Deaths TR” value is 0. Moreover, in series [4] (G8: 50 mg/kg po bid to end, nadir on Day 2), the “Mean BW Nadir” value was −0.1% Day 2. Also, in [4] (G9: 100 mg/kg po bid to end), the “Deaths NTR” value was found to be 0 and the “Deaths TR” value came to 0. Moreover, the Anti-tumor response entry in [5] is on record as “potent anti-tumor response”. In addition, the IC50 in the series with A375 was determined as 87 nM. In the series with G-361, this compound yielded an IC50 of 344 nM.

On to `CC(=O)O[C@H]1C(=O)[C@@]2(C)[C@H]([C@H](OC(=O)c3ccccc3)[C@]3(O)C[C@H](OC(=O)[C@H](O)[C@@H](NC(=O)c4ccccc4)c4ccccc4)C(C)=C1C3(C)C)[C@]1(OC(C)=O)CO[C@@H]1C[C@@H]2O` [Paclitaxel], for which the IC50 was determined as 5 nM with A375; 7 nM with G-361; 4.7 nM with A375 cells [6]; 2.2 nM in the series with A375 cells [7] (A-375, read-out: Relative IC50, Month 1, Par = Parental cell line); 3.4 nM in the series with A375 cells [7] (A-375, read-out: Relative IC50, Month 1, cell line BVD-523 (0.48 μM)); 3.3 nM in the series on A375 cells [7] (A-375, read-out: Relative IC50, Month 1, cell line Dab (15 nM Dab)). For the same compound, the IC50 was determined as 3.4 nM in the series on A375 cells [7] (A-375, read-out: Relative IC50, Month 1, cell line Dab/523 (7.5 nM/0.24 μM)); 3 nM in the series on A375 cells [7] (A-375, read-out: Relative IC50, Month 1, cell line Tram (growing in 2 nM Tram)); 3.7 nM in the series on A375 cells [7] (A-375, read-out: Relative IC50, Month 2, Par = Parental cell line); 6.5 nM with A375 cells [7] (A-375, read-out: Relative IC50, Month 2, cell line BVD-523 (0.8 μM)); 1.9 nM in the series with A375 cells [7] (A-375, read-out: Relative IC50, Month 2, cell line Dab (127 nM Dab)); 4.2 nM in the series on A375 cells [7] (A-375, read-out: Relative IC50, Month 2, cell line Dab/523 (12.5 nM/0.4 μM)). For the same compound, the IC50 with A375 cells [7] (A-375, read-out: Relative IC50, Month 2, cell line Tra (8 nM Tram)) stood at 8.9 nM; with A375 cells [7] (A-375, read-out: Relative IC50, Month 3, Par = Parental cell line) it was 1.9 nM; in the series with A375 cells [7] (A-375, read-out: Relative IC50, Month 3, cell line Dab (3.2 μM Dab)), 1.9 nM.

Regarding `O=C(Nc1ccc2[nH]nc(-c3ccncc3)c2c1)[C@@H]1CCN(CC(=O)N2CCN(c3ccc(-c4ncccn4)cc3)CC2)C1` [SCH772984], the IC50 in the series with A375 is 32 nM; in the series on G-361 it was 180 nM. The “Autophosphorylation of ERK” value in series [8] is listed as “inhibit autophosphorylation of ERK”.
